“Also recorded” adds a separate entry of the source. Structures can show the parent of a compound that is named as a salt. Blank lines part the entries; values can stand above or below the compound they belong to.
Key:
HIF-2α [1] = target: T1, HIF-2α (Homo sapiens, UniProt Q99814); assay: HRE-luciferase activity in stable HRE/luciferase-expressing 786-O cells; format: cell-based; settings: for HRE luciferase activity (HIF activity), result in words: stable HRE-luciferase 786-O cells
T1 construct: endogenous in cells; host or cells: 786-O cells stably expressing HRE-luciferase
Experimental: HRE, hypoxia-responsive element.
FIG. 5. […] PBS was used in CTL and compound C76 was used as a positive control. **, P<0.01, ****, P<0.0001. Student t test.
FIG. 7. Ethacridine is a potent HIF-α inhibitor. To validate the inhibitory effect of Ethacridine, stable 786-O cells expressing HRE-Luciferase was treated with Ethacridine at the indicated concentration for 24 h. Luciferase activity was then measured and normalized to control vehicle (DMSO) group. Ethacridine at 5 uM could inhibited approximately 80% HRE activity, i.e., HIF activity. Data are expressed as mean±SD. […]

MCT-challenged rats = assay: monocrotaline (MCT) rat model of pulmonary hypertension; format: in vivo
Experimental: (A) Representative micrographs of Russel-Movat pentachrome staining of MCT-rat lungs. […] (B) Quantification of PA wall thickness in MCT rat lungs. […] Lung sections were immunostained with anti-α-smooth muscle actin (α-SMA) antibody (red); nuclei were counterstained with DAPI (blue). […] Scale bars: 50 μm.
FIG. 6. […] At 14 days post-MCT challenge, the rats were treated with HEAQ (20 mg/kg, oral, daily) or PBS for another 14 days.
RVSP was measured (A) and RV hypertrophy was calculated (B) at 28 days post-treatment. […] One-way ANOVA.
At 14 days post-MCT challenge, the rats were treated with Propantheline (1.0 mg/kg, i.p., twice a day) and Ethacridine (7.5 mg/kg, i.p., twice a day) (P+E) at the same time for 14 days. A separate group of rats was treated with either Propantheline (2.5 mg/kg, i.p., twice a day). RVSP was measured (A) and RV hypertrophy was calculated (B) at 28 days post-treatment. […] One-way ANOVA.

PDGF-B = assay: quantitative RT-PCR of PH-causing genes in DMOG-treated HLMVECs: PDGF-B; format: cell-based, human; settings: 24 h, mean±SD
Experimental: (§1) Regarding Table 2, human lung microvascular endothelial cells (ECs) were treated with 2-Dimethyloxalylglycine (DMOG, PHD inhibitor) and either vehicle (DMSO) or various HIF inhibitors for 24 h. RNA was isolated for quantitative RT-PCR analysis.

Endothelin-1 = assay: quantitative RT-PCR of PH-causing genes in DMOG-treated HLMVECs: Endothelin-1; format: cell-based, human; settings: 24 h, mean±SD
Experimental: as §1

SDF1 = assay: quantitative RT-PCR of PH-causing genes in DMOG-treated HLMVECs: SDF1; settings: 24 h, mean±SD
Experimental: as §1

786-O cells = assay: control SV40-luciferase activity in 786-O cells (toxicity); format: cell-based, human; settings: for SV40-Luc (of control): 2.5 uM; for control SV40 luciferase activity (cell toxicity), result in words: quinidine at the doses tested
HIF-2α [2] = assay: Western blotting of HIF-2α protein level; format: cell-based
[3] = target: human ether-à-go-go-related gene (hERG) channel (Homo sapiens, UniProt Q12809); settings: from reference 21; read-out: hERG channel inhibition IC50; cited from earlier work
[4] = MCT rat lungs, quinidine s.c. osmotic pump 10-12 mg/kg/day, 14 days
[5] = MCT rats, quinidine s.c. osmotic pump 10-12 mg/kg/day, 14 days
[6] = MCT rats, quinidine s.c. osmotic pump 10-12 mg/kg/day, 14 days from 2 weeks post-MCT

T1 sequence (Q99814 whole entry): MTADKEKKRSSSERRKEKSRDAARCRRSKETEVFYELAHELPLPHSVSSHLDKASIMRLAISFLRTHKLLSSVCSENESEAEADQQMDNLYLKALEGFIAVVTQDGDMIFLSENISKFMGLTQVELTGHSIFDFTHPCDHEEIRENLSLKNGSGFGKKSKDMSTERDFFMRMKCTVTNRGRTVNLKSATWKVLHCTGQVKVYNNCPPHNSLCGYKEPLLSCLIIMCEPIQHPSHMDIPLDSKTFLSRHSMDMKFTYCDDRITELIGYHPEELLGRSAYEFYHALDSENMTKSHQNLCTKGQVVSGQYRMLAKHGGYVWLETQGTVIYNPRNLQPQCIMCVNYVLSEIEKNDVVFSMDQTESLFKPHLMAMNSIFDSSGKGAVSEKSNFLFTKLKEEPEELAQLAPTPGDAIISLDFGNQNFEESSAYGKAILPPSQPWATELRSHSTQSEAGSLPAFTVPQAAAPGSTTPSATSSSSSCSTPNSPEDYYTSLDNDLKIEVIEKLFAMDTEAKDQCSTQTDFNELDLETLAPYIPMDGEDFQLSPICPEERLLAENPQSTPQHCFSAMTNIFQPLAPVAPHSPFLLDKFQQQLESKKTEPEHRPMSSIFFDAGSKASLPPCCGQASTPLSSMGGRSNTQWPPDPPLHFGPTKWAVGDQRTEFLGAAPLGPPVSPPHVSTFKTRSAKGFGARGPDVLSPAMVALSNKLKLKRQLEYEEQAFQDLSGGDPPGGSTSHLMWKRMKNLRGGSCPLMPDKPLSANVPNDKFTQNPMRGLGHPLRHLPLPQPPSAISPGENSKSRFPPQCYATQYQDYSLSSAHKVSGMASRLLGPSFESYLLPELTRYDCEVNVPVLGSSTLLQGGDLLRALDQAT
human ether-à-go-go-related gene (hERG) channel, sequence (Q12809 whole entry): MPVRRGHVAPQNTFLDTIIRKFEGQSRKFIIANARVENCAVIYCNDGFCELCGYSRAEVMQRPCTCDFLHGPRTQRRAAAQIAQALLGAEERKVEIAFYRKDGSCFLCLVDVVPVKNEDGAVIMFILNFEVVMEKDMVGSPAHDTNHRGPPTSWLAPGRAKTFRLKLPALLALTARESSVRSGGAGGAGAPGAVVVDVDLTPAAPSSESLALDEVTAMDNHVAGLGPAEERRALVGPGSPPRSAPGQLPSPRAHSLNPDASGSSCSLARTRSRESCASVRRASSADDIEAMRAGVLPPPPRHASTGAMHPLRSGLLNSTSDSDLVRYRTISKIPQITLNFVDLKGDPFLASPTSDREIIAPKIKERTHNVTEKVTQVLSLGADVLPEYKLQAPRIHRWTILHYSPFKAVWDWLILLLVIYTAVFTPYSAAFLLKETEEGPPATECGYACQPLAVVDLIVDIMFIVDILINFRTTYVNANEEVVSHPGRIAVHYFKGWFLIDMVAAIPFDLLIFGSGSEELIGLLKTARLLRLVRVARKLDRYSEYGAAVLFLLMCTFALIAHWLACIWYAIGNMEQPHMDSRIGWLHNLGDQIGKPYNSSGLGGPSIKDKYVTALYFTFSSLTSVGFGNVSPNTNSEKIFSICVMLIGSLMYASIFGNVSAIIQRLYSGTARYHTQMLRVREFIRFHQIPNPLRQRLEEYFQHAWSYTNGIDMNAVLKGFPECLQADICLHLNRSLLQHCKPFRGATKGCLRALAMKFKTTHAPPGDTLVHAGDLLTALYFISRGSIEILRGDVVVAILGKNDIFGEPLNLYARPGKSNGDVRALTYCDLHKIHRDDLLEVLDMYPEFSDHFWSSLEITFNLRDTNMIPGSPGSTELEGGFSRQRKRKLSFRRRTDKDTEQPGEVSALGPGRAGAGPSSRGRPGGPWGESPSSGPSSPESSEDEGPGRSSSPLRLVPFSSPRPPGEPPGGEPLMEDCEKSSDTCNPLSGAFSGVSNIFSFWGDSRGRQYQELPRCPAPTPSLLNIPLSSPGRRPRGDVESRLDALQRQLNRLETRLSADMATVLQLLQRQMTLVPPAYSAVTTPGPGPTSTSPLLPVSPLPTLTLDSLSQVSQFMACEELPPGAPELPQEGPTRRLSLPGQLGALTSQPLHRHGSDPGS

Compound: CCOc1ccc2nc3cc(N)ccc3c(N)c2c1 [Ethacridine, 7-ethoxyacridine-3,9-diamine]
inhibition at 2.5 µM (HIF-2α [1]; 786-0, 786-O cells, 2.5 uM): 70% | inhibition at 5 µM (HIF-2α [1]; 786-0, 786-O cells, 5 uM, 24 h, read-out: inhibition of HRE activity, i.e., HIF activity): ~80% | HRE luciferase activity (HIF activity), result in words (HIF-2α [1]; 24 h): potent HIF α inhibitors | PH (RVSP) (MCT-challenged rats; MCT rats, ethacridine alone 7.5 mg/kg i.p. twice a day, 14 days): didn't inhibit PH | PDGF-B expression (control = 1.00) (PDGF-B; 20 & 30 uM, DMOG alone 2.05 ± 0.33): 0.52 ± 0.31 | PDGF-B expression (control = 1.00) (PDGF-B; 20 & 30 uM, DMOG alone 2.05 ± 0.33, listed as ethacridine): markedly inhibited | Endothelin-1 expression (control = 1.00) (Endothelin-1; 20 & 30 uM, DMOG alone 2.36 ± 0.23): 0.12 ± 0.07 | Endothelin-1 expression (control = 1.00) (Endothelin-1; 20 & 30 uM, DMOG alone 2.36 ± 0.23, listed as ethacridine): markedly inhibited | SDF1 expression (control = 1.00) (SDF1; 20 & 30 uM, DMOG alone 1.80 ± 0.06): 12.9 ± 8.1 | SDF1 expression (control = 1.00) (SDF1; 20 & 30 uM, DMOG alone 1.80 ± 0.06, listed as ethacridine): induced SDF-1 expression

HRE-Luc (of control) (HIF-2α [1]; 786-O cells, 1.25 uM): 0.34 | HRE luciferase activity (HIF activity), result in words (HIF-2α [1]; 24 h): potent HIF α inhibitors
Compound: COc1cc([C@@H]2c3cc4c(cc3[C@@H](O[C@@H]3O[C@@H]5CO[C@@H](C)O[C@H]5[C@H](O)[C@H]3O)[C@H]3COC(=O)[C@H]23)OCO4)cc(OC)c1O [Etoposide, (5S,5aR,8aR,9R)-5-[[(2R,4aR,6R,7R,8R,8aS)-7,8-dihydroxy-2-methyl-4,4a,6,7,8,8a-hexahydropyrano[3,2-d][1,3]dioxin-6-yl]oxy]-9-(4-hydroxy-3,5-dimethoxyphenyl)-5a,6,8a,9-tetrahydro-5H-[2]benzofuro[6,5-f][1,3]benzodioxol-8-one]
PDGF-B expression (control = 1.00) (PDGF-B; 20 & 40 uM, DMOG alone 2.05 ± 0.33): 0.77 ± 0.37 | PDGF-B expression (control = 1.00) (PDGF-B; 20 & 40 uM, DMOG alone 2.05 ± 0.33, listed as etoposide): markedly inhibited | Endothelin-1 expression (control = 1.00) (Endothelin-1; 20 & 40 uM, DMOG alone 2.36 ± 0.23): 0.47 ± 0.50 | Endothelin-1 expression (control = 1.00) (Endothelin-1; 20 & 40 uM, DMOG alone 2.36 ± 0.23, listed as etoposide): markedly inhibited | SDF1 expression (control = 1.00) (SDF1; 20 & 40 uM, DMOG alone 1.80 ± 0.06): 1.25 ± 0.80

inhibition at 2.5 µM (HIF-2α [1]; 786-0, 786-O cells, 2.5 uM): 65 to 77% | HRE-Luc (of control) (HIF-2α [1]; 786-O cells, 2.5 uM): 0.23 | HRE luciferase activity (HIF activity), result in words (HIF-2α [1]; 24 h): potent HIF α inhibitors
Compound: CCc1c2c(nc3ccc(OC(=O)N4CCC(N5CCCCC5)CC4)cc13)-c1cc3c(c(=O)n1C2)COC(=O)[C@]3(O)CC [Irinotecan, [(19S)-10,19-diethyl-19-hydroxy-14,18-dioxo-17-oxa-3,13-diazapentacyclo[11.8.0.0^2,11.0^4,9.0^15,20]henicosa-1(21),2,4(9),5,7,10,15(20)-heptaen-7-yl] 4-piperidin-1-ylpiperidine-1-carboxylate; hydrochloride]
SV40-Luc (of control) (786-O cells; hydrochloride): 0.99 | SV40-Luc (of control) (786-O cells; listed as irinotecan, hydrochloride): without clear toxicity

inhibition at 2.5 µM (HIF-2α [1]; 786-0, 786-O cells, 2.5 uM): 65 to 77% | HRE-Luc (of control) (HIF-2α [1]; 786-O cells, 2.5 uM): 0.31 | HRE luciferase activity (HIF activity), result in words (HIF-2α [1]; 24 h): potent HIF α inhibitors
Compound: CC[N+](C)(CC)CCOC(=O)C1c2ccccc2Oc2ccccc21 [Methantheline]
SV40-Luc (of control) (786-O cells): 0.86 | SV40-Luc (of control) (786-O cells; listed as methantheline): without clear toxicity

Compound: CC(C)[N+](C)(CCOC(=O)C1c2ccccc2Oc2ccccc21)C(C)C.[Br-] [Propantheline]
PDGF-B expression (control = 1.00) (PDGF-B; 40 uM, DMOG alone 2.05 ± 0.33): 1.55 ± 0.44 | Endothelin-1 expression (control = 1.00) (Endothelin-1; 40 uM, DMOG alone 2.36 ± 0.23): 1.70 ± 0.45 | SDF1 expression (control = 1.00) (SDF1; 40 uM, DMOG alone 1.80 ± 0.06): 0.53 ± 0.37 | SDF1 expression (control = 1.00) (SDF1; 40 uM, DMOG alone 1.80 ± 0.06, listed as propantheline): mainly inhibited SDF-1 expression

Compound: C=C[C@H]1C[N@]2CC[C@H]1C[C@@H]2[C@@H](O)c1ccnc2ccc(OC)cc12 [Quinidine, (2-Ethenyl-4-azabicyclo[2.2.2]oct-5-yl)-(6-methoxyquinolin-4-yl)-methanol]
inhibition at 20 µM (HIF-2α [1]; 786-0, 786-O cells, 20 uM): ~70% | HRE luciferase activity (HIF activity), result in words (HIF-2α [1]; 24 h): repressed HRE luciferase (Luc) activity in a dose-dependent manner | HRE luciferase activity (HIF activity), result in words (HIF-2α [1]; 24 h, listed as quinidine): inhibition of HRE/luciferase activity in a dose-dependent manner | control SV40 luciferase activity (cell toxicity), result in words (786-O cells): didn't repress control SV40 luciferase activity | control SV40 luciferase activity (cell toxicity), result in words (786-O cells; listed as quinidine): without obvious toxicity | HIF-2α protein level (HIF-2α [2]): didn't inhibit expression | expression of HIF-2α downstream target genes in lungs (MCT-challenged rats; MCT rat lungs, quantitative RT-PCR, quinidine vs vehicle): normalized or markedly inhibited; also recorded: suppressed HIF-2α activation in MCT-rat lungs | muscularization of distal pulmonary arteries (<75 μm) (MCT-challenged rats; [4]): markedly attenuated; also recorded: Marked decrease in muscularization of distal pulmonary arterioles | pulmonary artery wall thickening (pulmonary vascular remodeling) (MCT-challenged rats; [4]): markedly attenuated; also recorded: reversed pulmonary vascular remodeling | survival, result in words (MCT-challenged rats; MCT rats, Log-rank test): promoted survival | PH (RVSP) (MCT-challenged rats; MCT rats, quinidine alone 10 mg/kg oral twice a day, 14 days): didn't inhibit PH | RV contractility (MCT-challenged rats; [5]): Improved RV contractility | RV wall thickness (echocardiography) (MCT-challenged rats; [5]): decreased RV wall thickness; also recorded: reduction in RV wall thickness | RV hypertrophy (MCT-challenged rats; [6]): marked decrease; also recorded: reduced | right ventricular systolic pressure (RVSP) (MCT-challenged rats; [6]): marked decrease; also recorded: reduced RVSP | survival rate (MCT-challenged rats; day 28 post-MCT challenge with a lethal dose, all vehicle rats had died): 90%

Compound: hydroxyethylapoquinine [HEAQ]
HRE luciferase activity (HIF activity), result in words (HIF-2α [1]; 24 h): could inhibit HIF activity as efficiently as Quinidine | PH (RVSP) (MCT-challenged rats; MCT rats, HEAQ 20 mg/kg oral daily for 14 days from 14 days post-MCT): attenuate PH; also recorded: markedly reduced RVSP | IC50 [3]: > 90 µM
